Experimental data: patent US20230331652A1, “TRANS-CYCLOOCTENES WITH HIGH REACTIVITY AND FAVORABLE PHYSIOCHEMICAL PROPERTIES” (University of Delaware, priority 2020, published 2023)
Entries after “also recorded” stand apart in the source; their conditions may differ.

Experiments:
[1] = system: HeLa cells transfected with either HaloTag-H2B-GFP (nucleus) or HaloTag-GAP43-GFP (cytoplasm); assay: TAMRA-a-TCO permeability assay (HaloTag intracellular labeling); format: cell-based; details: 1 μM, 30 min
Experimental: Here, cells are transfected with a GFP-HaloTag construct fused to a protein that controls subcellular localization, and then labeled by a tetrazine-HaloTag ligand 21. Upon subsequent reaction with fluorescent TAMRA-a-TCO, conjugation is expected only in those cells that express the HaloTag fusion protein, and co-localization of GFP and TAMRA fluorescence is expected.
HeLa Cell Culture and Transfection: HeLa cells were grown in Dulbecco's modified eagle medium (DMEM, Life Technologies) supplemented with 10% (v:v) heat inactivated fetal bovine serum (Life Technologies), 2 mM I-glutamine, and 100 units/mL penicillin/streptomycin (Life Technologies) in a humidified incubator at 37° C./5% CO2. Transfection was performed with cells at 70% confluency using Lipofectamine 3000 according to the manufacturer's instructions. HeLa cells were incubated for 5 hours at 37° C./5% CO2 before being exchanged with antibiotic free growth media for 16-20 hours prior to experimental procedures. […]

HeLa cells = assay: TAMRA-TCO comparative washout assay; format: cell-based; details: 5 μM, 30 min incubation
Text: While TCO-derivatives offer rapid labeling kinetics, a consideration for labeling by fluorophore-tagged TCOs has been the background fluorescence due to non-covalent cellular binding that can be ameliorated only by extended washout times. More hydrophilic oxo- and dioxo-trans-cyclooctenes with backbone oxygens offer improvements, but are difficult to synthesize and, for dioxo-TCO, display reduced Diels-Alder kinetics. As shown in FIGS. 5A-5C, the fluorescent conjugates TAM RA-TCO, TAMRA-oxo-TCO and TAMRA-a-TCO were prepared and compared their cellular washout times to unconjugated TAMRA. Thus, HeLa cells were incubated for 30 min with TAMRA-dyes, and cells were initially washed three times with DPBS, and then cell media was exchanged after 10, 40 and 120 minutes. After each wash, cells were imaged live by fluorescence microscopy with illumination at 531 nm and fixed-intensity across all samples. Widefield images of the cells after 3 washes are shown in FIG. 5B; images after the earlier and later washings are shown in FIG. 8. Background fluorescence was quantified by dividing total fluorescence by the number of cells in each image (FIG. 5C).
HeLa cells were seeded at 5×10^3 cells per well in a poly-L-lysine (0.1 mg/mL) coated 48-well plate and allowed to grow for 48 hours in Dulbecco's modified eagle medium (DMEM, Life Technologies) supplemented with 5% FBS (Life Technologies), 1 mM L-glutamine, and 1% penicillin/streptomycin (Life Technologies). Cells were then incubated with media containing 5 μM of TAMRA-TCO, TAMRA-oxo-TCO, or TAMRA-a-TCO 12 (1 mM stock solutions in DMSO, diluted twice into media) for 30 mins at 37° C. All wells were washed three times with DPBS before adding fresh media. Cells were imaged after 2 DPBS washes and again after the 3rd DPBS wash, then incubated for additional time intervals: 10 minutes, 40 minutes, and 2 hour. At each time point, the media was removed from the designated wells and replaced with fresh media before imaging. Images were taken with an EVOS M7000 and all images were taken with the same laser power and gain. Fluorescence intensity was calculated for each sample in 3 replicates using ImageJ and the fluorescence data was normalized with the cell count of each image.

[2] = Storage stability of neat TCO; format: physicochemical; details: neat versus stored in solution
Text: The diastereoselective additions of 2 with methyl α-lithioacetate or lithioacetonitrile provided a straightforward path to introduce handles for conjugation via amide bond or ether formation. The reaction of ketone 2 with lithium bis(trimethylsilyl)amide (LiHMDS)/methyl acetate produced ester 9 in 86% yield. Similarly, the combination of 2 with LiHMDS and acetonitrile produced nitrile 10 in 98% yield. Hydrolysis of 9 with trimethyltin hydroxide followed by DIC-mediated coupling with N-hydroxysuccinimide gave NHS ester 11 in 89% yield (FIG. 3B). Alternately, using LiOH gave 11 in 46% yield after DIC coupling. Through amide coupling, 11 gave the fluorescent TAMRA-conjugate 12 with favorable physiochemical properties, and 11 was also combined with hydrazine monohydrate to give hydrazide 13 with a potential handle for aldehyde conjugation. TCO 9 also was combined with LiAlH4 to provide diol 14 in 89% yield which was next used in a Williamson ether synthesis with NaH/propargyl bromide to give 96% yield of propargyl ether 15. […] Amine 16 was synthesized by LiAlH4 reduction of TCO nitrile 10 in 93% yield to introduce an acid reactive conjugation handle. […] In summary, ketone 2 can serve as a readily prepared, central intermediate for the diastereoselective preparation of a range of hydrophilic a-TCO conjugates.

Row | SMILES | cell permeability ([1]; live HeLa cells, after MeTz-Halo 21 (10 μM)) | colocalization of TAMRA signal with GFP ([1]; nuclear (H2B) and cytoplasmic (GAP43) HaloTag targets, confocal microscopy) | reduction in background fluorescence relative to TAMRA-TCO (HeLa cells; after initial 3× wash) [%] | background fluorescence / washout after 2 hours (HeLa cells; media exchanges up to 2 hours) | storage stability [2]
1 | CN(C)c1ccc2c(-c3ccc(C(=O)NCCCCCNC(=O)C[C@]4(O)CC/C=C/CCC4)cc3C(=O)[O-])c3ccc(=[N+](C)C)cc-3oc2c1 [TAMRA-a-TCO, (R,E)-2-(6-(dimethylamino)-3-(dimethyliminio)-3H-xanthen-9-yl)-5-((5-(2-(1-hydroxycyclooct-4-en-1-yl)acetamido)pentyl)carbamoyl)benzoate] | cell permeable | subcellular colocalization of GFP and TAMRA fluorescence; also recorded: selective colocalization of the TAMRA signal with GFP was observed | 85 | essentially complete | 
2 | C=CCC1(O)CC/C=C/CCC1 (stereo not drawn) [Compound 6, 5-eq-Allyl-5-ax-hydroxy-trans-cyclooctene] |  |  |  |  | polymerize if not stored in solution
3 | C#CCOCC[C@]1(O)CC/C=C/CCC1 [Compound 15, 5-ax-Hydroxy-5-eq-(2-(prop-2-yn-1-yloxy)ethyl)-trans-cyclooctene] |  |  |  |  | more stable alternative
